Assay results reported in PubChem BioAssay AID258 (DTP/NCI, 2004).
“And” between values parts separate entries of the source, which are not always exact repeats. Identical values can stand only once. Inconclusive results and toxic doses are left out.

System: CD2F1 mice, L1210 leukemia sc, survival T/C
Assay: NCI In Vivo Anticancer Drug Screen. Data for tumor model L1210 Leukemia (subcutaneous) in CD2F1 (CDF1) mice
Conditions: endpoint: median survival time, higher = longer survival
Method in brief: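 Transplantable tumor-bearing mice were treated with compound; survival or tumor size measured and expressed as treated-group value (T) divided by vehicle-treated control value (C).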

## CC1CCC(NC(=O)N(CCCl)N=O)CC1 (centres undefined)
dose: 0.25 mg/kg/injection, schedule: Q01DX009 (ip), vehicle: saline + alcohol
  T/C: 96 % of control
dose: 0.5 mg/kg/injection, schedule: Q01DX009 (ip), vehicle: saline + alcohol
  T/C: 112 % of control
dose: 1.0 mg/kg/injection, schedule: Q01DX009 (ip), vehicle: saline + alcohol
  T/C: 122 % of control
dose: 4.0 mg/kg/injection, schedule: Q01DX009 (ip), vehicle: saline + alcohol
  T/C: 153 % of control and 239 % of control
dose: 4.0 mg/kg/injection, schedule: Q01DX009 (sc), vehicle: saline + alcohol
  T/C: 107 % of control
dose: 5.3 mg/kg/injection, schedule: Q01DX009 (sc), vehicle: saline + alcohol
  T/C: 225 % of control
dose: 8.0 mg/kg/injection, schedule: Q01DX009 (ip), vehicle: saline + alcohol
  T/C: 163 % of control and 267 % of control
dose: 8.0 mg/kg/injection, schedule: Q01DX009 (sc), vehicle: saline + alcohol
  T/C: 120 % of control and 246 % of control
dose: 10.7 mg/kg/injection, schedule: Q01DX009 (ip), vehicle: saline + alcohol
  T/C: 745 % of control
dose: 12.0 mg/kg/injection, schedule: Q01DX009 (sc), vehicle: saline + alcohol
  T/C: 250 % of control
dose: 16.0 mg/kg/injection, schedule: Q01DX009 (ip), vehicle: saline + alcohol
  T/C: 200 % of control and 230 % of control
dose: 16.0 mg/kg/injection, schedule: Q01DX009 (sc), vehicle: saline + alcohol
  T/C: 198 % of control and 209 % of control
dose: 21.4 mg/kg/injection, schedule: Q01DX009 (sc), vehicle: saline + alcohol
  T/C: 400 % of control
dose: 24.0 mg/kg/injection, schedule: Q01DX009 (ip), vehicle: saline + alcohol
  T/C: 153 % of control
dose: 24.0 mg/kg/injection, schedule: Q01DX009 (sc), vehicle: saline + alcohol
  T/C: 123 % of control
dose: 32.0 mg/kg/injection, schedule: Q01DX009 (sc), vehicle: saline + alcohol
  T/C: 162 % of control and 203 % of control
dose: 48.0 mg/kg/injection, schedule: Q01DX009 (ip), vehicle: saline + alcohol
  T/C: 90 % of control
dose: 48.0 mg/kg/injection, schedule: Q01DX009 (sc), vehicle: saline + alcohol
  T/C: 189 % of control
dose: 64.0 mg/kg/injection, schedule: Q01DX009 (ip), vehicle: saline + alcohol
  T/C: 150 % of control
dose: 64.0 mg/kg/injection, schedule: Q01DX009 (sc), vehicle: saline + alcohol
  T/C: 122 % of control
dose: 256.0 mg/kg/injection, schedule: Q01DX009 (sc), vehicle: saline + alcohol
  T/C: 120 % of control

## Nc1ncn(C2OC(CO)C(O)C2O)c(=O)n1 (centres undefined)
dose: 0.2 mg/kg/injection, schedule: Q01DX009 (ip), vehicle: saline
  T/C: 97 % of control
dose: 0.2 mg/kg/injection, schedule: Q01DX009 (sc), vehicle: saline
  T/C: 102 % of control
dose: 0.4 mg/kg/injection, schedule: Q01DX009 (ip), vehicle: saline
  T/C: 113 % of control
dose: 0.4 mg/kg/injection, schedule: Q01DX009 (sc), vehicle: saline
  T/C: 115 % of control and 119 % of control
dose: 0.8 mg/kg/injection, schedule: Q01DX009 (sc), vehicle: saline
  T/C: 120 % of control
dose: 1.07 mg/kg/injection, schedule: Q01DX009 (sc), vehicle: saline
  T/C: 158 % of control
dose: 1.6 mg/kg/injection, schedule: Q01DX009 (ip), vehicle: saline
  T/C: 150 % of control
dose: 2.1 mg/kg/injection, schedule: Q01DX009 (ip), vehicle: saline
  T/C: 178 % of control
dose: 2.1 mg/kg/injection, schedule: Q01DX009 (sc), vehicle: saline
  T/C: 187 % of control
dose: 7.2 mg/kg/injection, schedule: Q01DX009 (ip), vehicle: saline
  T/C: 206 % of control and 88 % of control
dose: 9.6 mg/kg/injection, schedule: Q01DX009 (ip), vehicle: saline
  T/C: 113 % of control
dose: 28.8 mg/kg/injection, schedule: Q01DX009 (sc), vehicle: saline
  T/C: 106 % of control

## COc1cccc2c1C(=O)c1c(O)c3c(c(O)c1C2=O)CC(O)(C(C)=O)CC3OC1CC(N)C(O)C(C)O1 (centres undefined)
dose: 2.9 mg/kg/injection, schedule: Q01DX009 (ip), vehicle: saline
  T/C: 96 % of control
dose: 5.8 mg/kg/injection, schedule: Q01DX009 (ip), vehicle: saline
  T/C: 96 % of control
dose: 11.7 mg/kg/injection, schedule: Q01DX009 (ip), vehicle: saline
  T/C: 98 % of control
dose: 23.4 mg/kg/injection, schedule: Q01DX009 (ip), vehicle: saline
  T/C: 103 % of control
dose: 46.8 mg/kg/injection, schedule: Q01DX009 (ip), vehicle: saline
  T/C: 108 % of control

## O=c1n(CC2CO2)c(=O)n(CC2CO2)c(=O)n1CC1CO1 (centres undefined)
dose: 12.5 mg/kg/injection, schedule: Q04DX003 (ip), vehicle: saline
  T/C: 106 % of control
dose: 25.0 mg/kg/injection, schedule: Q04DX003 (ip), vehicle: saline
  T/C: 114 % of control
dose: 40.0 mg/kg/injection, schedule: Q01DX009 (ip), vehicle: saline
  T/C: 150 % of control and 191 % of control
dose: 40.0 mg/kg/injection, schedule: Q04DX003 (ip), vehicle: saline
  T/C: 114 % of control
dose: 50.0 mg/kg/injection, schedule: Q01DX009 (ip), vehicle: saline
  T/C: 172 % of control and 193 % of control
dose: 50.0 mg/kg/injection, schedule: Q04DX003 (ip), vehicle: saline
  T/C: 153 % of control and 172 % of control
